From patent US12215084B2, “2(1H)-pyridinones and their use to treat inflammatory conditions” (Conopco, Inc., priority 2019, dated 2025)
Where two headings read alike, the source gives them in different places.

Experiments:
THP1-XBlue™ cells = assay: Anti-inflammation efficacy in THP-1 in vitro assay (LPS co-treatment, IL-6 ELISA); type: cell-based; conditions: co-treated with E. coli LPS, PMA-differentiated THP1-XBlue cells, 24 hours, supernatant ELISA, LPS alone 3253.4
Description: The following procedure was used to test the anti-inflammation efficacy of the compound:
THP1-XBlue™ (Cat No: thpx-sp, InvivoGen) cells were cultured as suspense in RPMI 1640 medium supplemented with 10% FBS, penicillin (10 U/mL)—streptomycin (10 μg/ML). Cells were differentiated in 24-well plates at the density of 5×10^5 cells/well with 100 nM PMA for 72 hours. Cells were then co-treated with pure E. coli ipopolysaccharides (LPS) and with the compound inside the invention. After 24 hours, the supernatants were collected and measured for interleukin (IL)-6 as pro-inflammatory bio-marker using enzyme-linked immunosorbent assay (ELISA).

[1] = Octopirox® degradation under cool white light; type: physicochemical; conditions: cool white light (indoor light), 24 hours, room temperature, LCMS / UPLC-UV
Description: Cool White Light Treatment:
The cool white light (CWL) irradiation was carried out in an X-Rite (Macbeth) Spectra Light III chamber. CWL mode was chosen which provides stable irradiation mimicking the indoor light. The intensity of light was fixed which estimated at 6 μw/cm2 for UVA and 1.5 μw/cm^2 for UVB. The chamber temperature was equal to the room temperature ([…]). The sample was placed in a line close to the center of the chamber. After 24 hours, the sample was analyzed by LCMS (Water UPLC coupled with Quatro Micro MS)., by quantitatively measured using UPLC-UV analysis following DPS derivatization.
The separation was performed by a UPLC BEH C18 column and the mobile phase was acetonitrile/water (60/40, 0.1% formic acid) in isocratic elution. Electrospray ionization in positive mode was applied for MS scan.

[2] = background statement (well known; Clariant introduction), cited from earlier work

quantity of Octopirox® after cool white light irradiation [1] | SMILES | Concentration of IL-6 (THP1-XBlue™ cells; 5 μM of the compound) [pg/mL] | Concentration of IL-6 (THP1-XBlue™ cells; 10 μM of the compound) [pg/mL] | light stability [2] | light stability ([2]; listed as piroctone olamine)
 | Cc1cc(O)nc(CC(C)CC(C)(C)C)c1 (centres unmarked) [the compound] | 3083.3 | 1405.3 |  | 
reduced | Cc1cc(CC(C)CC(C)(C)C)n(O)c(=O)c1.NCCO (centres unmarked) [Octopirox®, piroctone olamine] |  |  | unstable under light | light instable
